In US12297204B2, “5-(substitutedphenyl)-7-thioxo-7,8-dihydropyrimido[4,5-d]pyrimidine-2,4(1H,3H)-dione analogues as antibacterial agents” (KING FAISAL UNIVERSITY, priority 2023, dated 2025):
Converted amounts (≈) assume the structure as drawn.

What was measured:
[1] = test system: T. atroviridae; assay: Antimicrobial activity MIC, T. atroviridae; assay type: cell-based, Trichoderma atroviride
[2] = test system: B. subtilis; assay: Antimicrobial activity MIC, B. subtilis; assay type: cell-based, Bacillus subtilis (MTCC 441)
[3] = test system: S. aureus; assay: Antimicrobial activity MIC, S. aureus; assay type: cell-based, Staphylococcus aureus (MTCC 9660)
[4] = test system: P. aeruginosa; assay: Antimicrobial activity MIC, P. aeruginosa; assay type: cell-based, Pseudomonas aeruginosa (MTCC 424)
[5] = test system: P. citrinum; assay: Antimicrobial activity MIC, P. citrinum; assay type: cell-based, Penicillium citrinum
[6] = test system: A. flavus; assay: Antimicrobial activity MIC, A. flavus; assay type: cell-based, Aspergillus flavus
[7] = test system: C. albicans; assay: Antimicrobial activity MIC, C. albicans; assay type: cell-based, Candida albicans
[8] = test system: E. coli; assay: Antimicrobial activity MIC, E. coli; assay type: cell-based, Escherichia coli (MTCC 443)

Molecule | MIC ([1]; T. atroviridae) [µM] | MIC ([2]; B. subtilis) [µM] | MIC ([3]; S. aureus) [µM] | MIC ([4]; P. aeruginosa) [µM] | MIC ([5]; P. citrinum) [µM] | MIC ([6]; A. flavus) [µM] | MIC ([7]; C. albicans) [µM] | MIC ([8]; E. coli) [µM] | MIC ([1]; Trichoderma atroviride) [µM] | MIC ([2]; Bacillus subtilis) [µM] | MIC ([3]; Staphylococcus aureus) [µM] | MIC ([4]; Pseudomonas aeruginosa) [µM] | MIC ([5]; Penicillium citrinum) [µM] | MIC ([6]; Aspergillus flavus) [µM] | MIC ([7]; Candida albicans) [µM] | MIC ([8]; Escherichia coli) [µM]
5-(4-(Benzyloxy)phenyl)-7-thioxo-7,8-dihydropyrimido[4,5-d]pyrimidine-2,4(1H,3H)-dione [Compound 4b] | 0.01 | 0.17 | 0.34 | 0.17 | 0.01 | 0.01 | 0.005 | 0.17 | – | – | – | – | – | – | – | –
O=c1[nH]c(=O)c2c(-c3cccc(OCc4ccccc4)c3)nc(=S)[nH]c2[nH]1 [Compound 4a, 5-(3-(Benzyloxy)phenyl)-7-thioxo-7,8-dihydropyrimido[4,5-d]pyrimidine-2,4(1H,3H)-dione] | – | – | – | – | – | – | – | – | 0.17 (≈ 0.0643 µg/mL) | 0.01 (≈ 0.00378 µg/mL) | 0.02 (≈ 0.00757 µg/mL) | 0.04 (≈ 0.0151 µg/mL) | 0.17 (≈ 0.0643 µg/mL) | 0.17 (≈ 0.0643 µg/mL) | 0.08 (≈ 0.0303 µg/mL) | 0.04 (≈ 0.0151 µg/mL)
COc1ccc(-c2nc(=S)[nH]c3[nH]c(=O)[nH]c(=O)c23)cc1O [Compound 4c, 5-(3-Hydroxy-4-methoxyphenyl)-7-thioxo-7,8-dihydropyrimido[4,5-d]pyrimidine-2,4(1H,3H)-dione] | – | – | – | – | – | – | – | – | 0.05 (≈ 0.0159 µg/mL) | 0.2 (≈ 0.0637 µg/mL) | 0.4 (≈ 0.127 µg/mL) | 0.2 (≈ 0.0637 µg/mL) | 0.05 (≈ 0.0159 µg/mL) | 0.05 (≈ 0.0159 µg/mL) | 0.03 (≈ 0.00955 µg/mL) | 0.2 (≈ 0.0637 µg/mL)
COc1ccc(-c2nc(=S)[nH]c3c2c(=O)n(C)c(=O)n3C)cc1O [Compound 4d, 5-(3-Hydroxy-4-methoxyphenyl)-1,3-dimethyl-7-thioxo-7,8-dihydropyrimido[4,5-d]pyrimid-ine-2,4(1H,3H)-dione] | – | – | – | – | – | – | – | – | 0.37 (≈ 0.128 µg/mL) | 0.006 (≈ 0.00208 µg/mL) | 0.012 (≈ 0.00416 µg/mL) | 0.012 (≈ 0.00416 µg/mL) | 0.37 (≈ 0.128 µg/mL) | 0.37 (≈ 0.128 µg/mL) | 0.18 (≈ 0.0623 µg/mL) | 0.012 (≈ 0.00416 µg/mL)
